Results as given in ChEMBL document CHEMBL5226346, “Chiral Cyclic Aliphatic Linkers as Building Blocks for Selective Dopamine D2 or D3 Receptor Agonists” (J Med Chem, 2021).

Experiments:
Homo sapiens [1] = species on record: Homo sapiens; experiment: Selectivity ratio of Ki for displacement of [3H]-(R)-(+)7-OH-DPAT from human dopamine D3 receptor expressed in HEK293 cell membranes to Ki for displacement of [3H]-(R)-(+)7-OH-DPAT from human dopamine D2 receptor expressed in HEK293 cell membranes
D(3) dopamine receptor = D(3) dopamine receptor (Homo sapiens, UniProt P35462); experiment: Displacement of [3H]-(R)-(+)7-OH-DPAT from human dopamine D3 receptor expressed in HEK293 cell membranes incubated for 90 mins by microbeta scintillation counting analysis; parameters: species or system Cell membrane
D(2) dopamine receptor = D(2) dopamine receptor (Homo sapiens, UniProt P14416); experiment: Displacement of [3H]-(R)-(+)7-OH-DPAT from human dopamine D2 receptor expressed in HEK293 cell membranes incubated for 90 mins by microbeta scintillation counting analysis; parameters: species or system Cell membrane
HEK293 = experiment: Selectivity ratio of Ki for displacement of [3H]-(R)-(+)7-OH-DPAT from human dopamine D2 receptor expressed in HEK293 cell membranes to Ki for displacement of [3H]-(R)-(+)7-OH-DPAT from human dopamine D3 receptor expressed in HEK293 cell membranes; settings: Cell membrane
Homo sapiens [2] = species on record: Homo sapiens; experiment: Selectivity ratio of Ki for displacement of [3H]-N-methylspiperone from human dopamine D2 receptor expressed in HEK293 cell membranes to Ki for displacement of [3H]-N-methylspiperone from human dopamine D3 receptor expressed in HEK293 cell membranes

Sequence of D(2) dopamine receptor (P14416 whole entry): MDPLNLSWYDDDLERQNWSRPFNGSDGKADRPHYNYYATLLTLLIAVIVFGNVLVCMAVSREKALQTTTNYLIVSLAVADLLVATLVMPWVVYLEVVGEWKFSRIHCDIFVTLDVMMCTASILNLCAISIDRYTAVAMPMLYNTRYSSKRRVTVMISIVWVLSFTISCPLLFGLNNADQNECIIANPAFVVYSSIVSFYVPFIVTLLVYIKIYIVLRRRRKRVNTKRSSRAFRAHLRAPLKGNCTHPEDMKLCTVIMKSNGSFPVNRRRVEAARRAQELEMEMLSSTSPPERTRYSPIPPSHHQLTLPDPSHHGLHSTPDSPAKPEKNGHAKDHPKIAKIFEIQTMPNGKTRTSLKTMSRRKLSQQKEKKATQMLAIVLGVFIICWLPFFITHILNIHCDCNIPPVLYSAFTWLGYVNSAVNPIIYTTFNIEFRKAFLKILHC
Sequence of D(3) dopamine receptor (P35462 whole entry): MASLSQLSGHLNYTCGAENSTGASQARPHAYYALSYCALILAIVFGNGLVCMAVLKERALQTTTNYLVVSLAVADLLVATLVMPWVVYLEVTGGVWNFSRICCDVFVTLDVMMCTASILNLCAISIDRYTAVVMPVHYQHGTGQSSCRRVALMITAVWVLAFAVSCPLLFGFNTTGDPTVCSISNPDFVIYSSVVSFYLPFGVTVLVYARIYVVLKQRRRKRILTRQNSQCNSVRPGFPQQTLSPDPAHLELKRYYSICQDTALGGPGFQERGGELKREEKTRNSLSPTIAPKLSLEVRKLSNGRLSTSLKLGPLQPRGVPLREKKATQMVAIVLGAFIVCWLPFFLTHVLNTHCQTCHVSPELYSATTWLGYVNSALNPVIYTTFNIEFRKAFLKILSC

Compound	Ratio Ki (Homo sapiens [1])	Ki (D(3) dopamine receptor) [nM]	Ki (D(2) dopamine receptor) [nM]	Ratio Ki (HEK293)	Ratio Ki (Homo sapiens [2])
CN(CC[C@@H]1CC[C@H](CNC(=O)c2cc3ccccc3[nH]2)C1)[C@@H]1Cc2cccc3[nH]c(=O)n(c23)C1 (relative stereo)	9.6	–	–	–	–
C[C@H]1CO[C@@H](c2ccc(N)nc2)CN1CCn1cc(CNC(=O)c2cc3ccccc3[nH]2)nn1	–	6860	13500	2	12
CN(C[C@@H]1C[C@H]1CCNC(=O)c1cc2ccccc2[nH]1)[C@@H]1Cc2cccc3[nH]c(=O)n(c23)C1	11	106	9.56	–	–
C[C@H]1CO[C@@H](c2ccc(N)nc2)CN1C/C=C1\CCC(CNC(=O)c2cc3ccccc3[nH]2)C1 (mixture of isomers)	–	–	–	7.5	76
C[C@H]1CO[C@@H](c2ccc(N)nc2)CN1CC(=O)N1CCC(CNC(=O)c2cc3ccccc3[nH]2)C1 (some centres undefined)	–	1380	1870	1.4	3.3
CN[C@@H]1Cc2cccc3[nH]c(=O)n(c23)C1 [SUMANIROLE]	–	784	–	–	–
CN(C[C@H]1C[C@@H]1CCNC(=O)c1cc2ccccc2[nH]1)[C@@H]1Cc2cccc3[nH]c(=O)n(c23)C1	–	22.1	49.1	2.2	–
CN(CC[C@@H]1CC[C@@H](CNC(=O)c2cc3ccccc3[nH]2)C1)[C@@H]1Cc2cccc3[nH]c(=O)n(c23)C1 (relative stereo)	17	–	–	–	–
